Calls of active or inactive are those of the source. No cut-off for these calls is given here.
Key:
[1] = Toxicity in BALB/c mouse assessed as change in blood biochemistry index at 15 mg/kg, ip bid for 7 days; format: organism-based; conditions: in vivo, 168 h, time 7 day
Staphylococcus aureus [2] = experiment: Antibacterial activity against methicillin-resistant Staphylococcus aureus clinical isolate M12 infected in KM mouse assessed as decrease in erythematous pustules in intradermal tissues at 5 mg/kg, sc measured after 24 hrs; format: functional, organism-based
[3] = Toxicity in KM mouse assessed as change in HGB level at 20 mg/kg, sc measured after 24 hrs; format: organism-based; conditions: in vivo
Staphylococcus aureus [4] = experiment: Induction of resistance development in Staphylococcus aureus ATCC 29213 at 0.5 times MIC treated for 20 days of consecutive passages; format: functional, organism-based; conditions: time 20.0 day
Staphylococcus aureus [5] = experiment: Antibacterial activity against Staphylococcus aureus ATCC 29213 by CLSI based micro-broth dilution method; format: functional
[6] = Toxicity in KM mouse assessed as inflammatory cell infiltration in hepatocytes at 20 mg/kg, sc measured after 24 hrs by H and E staining based analysis; format: organism-based; conditions: in vivo
[7] = Toxicity in KM mouse infected with methicillin-resistant Staphylococcus aureus clinical isolate M12 assessed as damage in heart at 5 to 10 mg/kg, sc measured after 24 hrs by H and E staining based analysis; format: organism-based; conditions: in vivo, dose 5-10 mg/kg
Staphylococcus aureus [8] = experiment: Disruption of cell membrane in methicillin-resistant Staphylococcus aureus clinical isolate M12 assessed as increase in DNA leakage incubated for 4 hrs by […]; format: functional, organism-based; conditions: dose <= 16.0 µg/ml
Staphylococcus aureus [9] = experiment: Antibacterial activity against methicillin-resistant Staphylococcus aureus clinical isolate M12 infected in KM mouse assessed as reduction in TNF-alpha level at infection site at 10 mg/kg, sc measured after 24 hrs by ELISA; format: functional
[10] = Toxicity in BALB/c mouse assessed as loss of lustrous hair at 40 mg/kg, ip bid for 7 days; format: organism-based; conditions: in vivo, 168 h, time 7 day
Staphylococcus aureus [11] = experiment: Antibacterial activity against methicillin-resistant Staphylococcus aureus clinical isolate M12 infected in KM mouse assessed as decrease in bacterial load in skin tissues at 10 mg/kg, sc measured after 24 hrs by drop-plate counting method (reference value: 6.7); format: functional; parameters: scale not given: the % may be the effect or the level left
[12] = Toxicity in KM mouse infected with methicillin-resistant Staphylococcus aureus clinical isolate M12 assessed as histopathological abnormality in spleen at 5 to 10 mg/kg, sc measured after 24 hrs by H and E staining based analysis; format: organism-based; conditions: in vivo, dose 5-10 mg/kg
[13] = Toxicity in BALB/c mouse assessed as smooth hair at <15 mg/kg, ip bid for 7 days; format: organism-based; conditions: in vivo, 168 h, time 7 day
[14] = Toxicity in BALB/c mouse assessed as pathological change in red medulla of spleen at 15 mg/kg, ip bid for 7 days; format: organism-based; conditions: in vivo, 168 h, time 7 day
Staphylococcus aureus [15] = experiment: Antibacterial activity against methicillin-resistant Staphylococcus aureus clinical isolate M12 infected in sepsis BALB/c mouse model assessed as decrease in necrosis in hepatocytes at 12 mg/kg, ip administered consecutively at 12 hr-interval for 24 hrs measured after 24 hrs post-last dose by H and E staining based analysis; format: functional, organism-based; conditions: time 48.0 hrs
[16] = Toxicity in KM mouse assessed as pathological change in liver at 20 mg/kg, sc measured after 24 hrs by H and E staining based analysis; format: organism-based; conditions: in vivo
Staphylococcus aureus [17] = experiment: Induction of cell membrane damage in methicillin-resistant Staphylococcus aureus clinical isolate M12 assessed as increase in red fluorescence at 8 times MIC incubated for 4 hrs by DAPI/PI staining based analysis; format: functional, organism-based
[18] = Toxicity in KM mouse assessed as change in WBC count at 20 mg/kg, sc measured after 24 hrs; format: organism-based; conditions: in vivo
Staphylococcus aureus [19] = experiment: Antibacterial activity against methicillin-resistant Staphylococcus aureus clinical isolate M12 infected in sepsis BALB/c mouse model assessed as decrease in pathological change in white medulla of spleen at 6 mg/kg, ip administered consecutively at 12 hr-interval for 24 hrs measured after 24 hrs post-last dose by H and E staining based analysis; format: functional, organism-based; conditions: time 48.0 hrs
[20] = Toxicity in BALB/c mouse assessed as necrosis in renal tubular epithelial cells at 15 mg/kg, ip bid for 7 days; format: organism-based; conditions: in vivo, 168 h, time 7 day
Staphylococcus aureus [21] = experiment: Bactericidal activity against Staphylococcus aureus ATCC 29213 at 8 times MIC incubated upto 8 hrs by time-kill assay; format: functional, organism-based
[22] = Toxicity in BALB/c mouse assessed as change in mental status at <15 mg/kg, ip bid for 7 days; format: organism-based; conditions: in vivo, 168 h, time 7 day
Staphylococcus aureus [23] = experiment: Antibacterial activity against methicillin-resistant Staphylococcus aureus clinical isolate M12 infected in KM mouse assessed as reduction in IL-6 level at infection site at 10 mg/kg, sc measured after 24 hrs by ELISA; format: functional
[24] = Toxicity in KM mouse assessed as degeneration of hepatocytes at 20 mg/kg, sc measured after 24 hrs by H and E staining based analysis; format: organism-based; conditions: in vivo
[25] = Hemolytic activity in sheep erythrocytes incubated for 1 hr by absorbance based assay; format: toxicity, cell-based, Ovis aries, Erythrocyte
[26] = Toxicity in BALB/c mouse assessed as animal death at 40 mg/kg, ip bid for 7 days; format: organism-based; conditions: in vivo, 168 h, time 7 day
Staphylococcus aureus [27] = experiment: Antibacterial activity against methicillin-resistant Staphylococcus aureus clinical isolate M20 by CLSI based micro-broth dilution method; format: functional
Staphylococcus aureus [28] = experiment: Antibacterial activity against methicillin-resistant Staphylococcus aureus clinical isolate M12 incubated for 16 to 18 hrs in presence of peptidoglycan; format: functional; conditions: time 16-18 hrs
[29] = Toxicity in KM mouse assessed as pathological change in white medulla of spleen at 20 mg/kg, sc measured after 24 hrs by H and E staining based analysis; format: organism-based; conditions: in vivo
Staphylococcus aureus [30] = experiment: Antibacterial activity against methicillin-resistant Staphylococcus aureus N315 by CLSI based micro-broth dilution method; format: functional
[31] = Toxicity in BALB/c mouse assessed as pathological change in white medulla of spleen at 15 mg/kg, ip bid for 7 days; format: organism-based; conditions: in vivo, 168 h, time 7 day
Staphylococcus aureus [32] = experiment: Antibacterial activity against methicillin-resistant Staphylococcus aureus clinical isolate M12 incubated for 16 to 18 hrs in presence of phosphatidylglycerol; format: functional; conditions: time 16-18 hrs
[33] = Toxicity in BALB/c mouse assessed as inflammatory cell infiltration in renal tubular epithelial cells at 15 mg/kg, ip bid for 7 days; format: organism-based; conditions: in vivo, 168 h, time 7 day
[34] = Toxicity in KM mouse assessed as pathological change in red medulla of spleen at 20 mg/kg, sc measured after 24 hrs by H and E staining based analysis; format: organism-based; conditions: in vivo
[35] = Toxicity in KM mouse assessed as smooth skin at <20 mg/kg, sc; format: organism-based; conditions: in vivo
[36] = Toxicity in KM mouse assessed as pathological change in spleen at 20 mg/kg, sc measured after 24 hrs by H and E staining based analysis; format: organism-based; conditions: in vivo
Staphylococcus aureus [37] = experiment: Disruption of cell membrane in methicillin-resistant Staphylococcus aureus clinical isolate M12 assessed as increase in protein leakage incubated for 4 hrs by BCA assay; format: functional, organism-based; conditions: dose <= 16.0 µg/ml
Staphylococcus aureus [38] = experiment: Antibacterial activity against methicillin-resistant Staphylococcus aureus clinical isolate M12 infected in sepsis BALB/c mouse model assessed as decrease in bacterial load in liver at 12 mg/kg, ip administered consecutively at 12 hr-interval for 24 hrs measured after 24 hrs post-last dose; format: functional; conditions: time 48 hrs
[39] = Selectivity index, ratio of HC50 for hemolytic activity in sheep erythrocytes to MIC for antibacterial activity against Staphylococcus aureus ATCC 29213; format: toxicity, cell-based, RBC
[40] = Toxicity in KM mouse assessed as formation of hard lumps at administration site at >40 mg/kg, sc; format: organism-based; conditions: in vivo
[41] = Toxicity in BALB/c mouse assessed as change in blood routine index at 15 mg/kg, ip bid for 7 days; format: organism-based; conditions: in vivo, 168 h, time 7 day

Structure (SMILES): C=CCc1cc(-c2ccc(OCCC[N+](C)(C)CC(=O)NCCCC)c(CC=C)c2)c2oc(=S)n(Cc3ccc(F)cc3)c2c1.[Br-]
- Activity [1]: Non-Toxic
- Activity (Staphylococcus aureus [2]): inactive
- Activity [3]: Non-Toxic
- Activity (Staphylococcus aureus [4]): inactive
- MIC (Staphylococcus aureus [5]): 2 µg/mL
- Activity [6]: Non-Toxic
- Activity [7]: Non-Toxic
- Activity (Staphylococcus aureus [8]): Dose-Dependent Effect
- Activity (Staphylococcus aureus [9]): 102.6 pg/mL
- Activity [10]: Toxic
- Activity (Staphylococcus aureus [11]): 4.1%
- Activity [12]: Non-Toxic
- Activity [13]: Non-Toxic
- Activity [14]: Non-Toxic
- Activity (Staphylococcus aureus [15]): Active
- Activity [16]: Non-Toxic
- Activity (Staphylococcus aureus [17]): Active
- Activity [18]: Non-Toxic
- Activity (Staphylococcus aureus [19]): inactive
- Activity [20]: Non-Toxic
- Activity (Staphylococcus aureus [21]): Active
- Activity [22]: Non-Toxic
- Activity (Staphylococcus aureus [23]): 66.7 pg/mL
- Activity [24]: Non-Toxic
- HC50 at 1 h [25]: 157 µg/mL
- Activity [26]: Toxic
- MIC (Staphylococcus aureus [27]): 2 µg/mL
- MIC (Staphylococcus aureus [28]): 2 µg/mL
- Activity [29]: Non-Toxic
- MIC (Staphylococcus aureus [30]): 4 µg/mL
- Activity [31]: Non-Toxic
- MIC (Staphylococcus aureus [32]): 128 µg/mL
- Activity [33]: Non-Toxic
- Activity [34]: Non-Toxic
- Activity [35]: Non-Toxic
- Activity [36]: Non-Toxic
- Activity (Staphylococcus aureus [37]): Dose-Dependent Effect
- Activity (Staphylococcus aureus [38]): 1.62 log10CFU/g
- selectivity ratio [39]: 95.1
- Activity [40]: Toxic
- Activity [41]: Non-Toxic

Source: ChEMBL document CHEMBL6127052, “Discovery of membrane-targeting amphiphilic honokiol derivatives containing an oxazolethione moiety to combat methicillin-resistant Staphylococcus aureus (MRSA) infections” (Eur J Med Chem, 2024)
